“Also recorded” adds a separate entry of the source.
How the values were obtained:
[1] = system: EI patient 3D human skin equivalent (HSE); assay: Gene expression analysis, EI patient 3D HSE; format: cell-based; details: for CDN4 gene expression / CLDN1 gene expression / DSC1 gene expression / DSG1 gene expression / FLG gene expression / IVL gene expression / KRT10 gene expression / KRT16 gene expression / LOR gene expression / OCLN gene expression / TJP1 gene expression: Control 1.00
Experimental: (§1) Non-diseased cells and cells from an EI patient were plated for 3D human skin equivalent (HSE)and treated with the erlotinib at 10 nM or 100 nM from the time of lifting to the air-liquid interface every 72 hours until harvest at day 10. The samples were subjected to gene expression analysis. […] Markers of terminal differentiation such as fillaggrin (FLG) and loricrin (LOR) and markers of cell adhesion such as desmoglein 1 (DSG 1) were also modified.
Gene expression results for EI patient tissue following treatment with erlotinib: […]

[2] = system: Hairless Skh-1 mice treated with TPA; assay: Mouse model of hyperkeratosis (TPA-induced skin inflammation); format: in vivo; details: composition comprising 0.4%, 1.0% or 4.0% erlotinib daily starting on Day 8
Experimental: Hairless Skh-1 mice were treated with 12-O-Tetradecanoylphorbol-13-acetate (TPA) daily for 7 days than every other day for the next 7 days to induce skin inflammation. The mice were then treated with vehicle or a composition comprising 0.4%, 1.0% or 4.0% erlotinib daily starting on Day 8. The mice were assessed for degrees of inflammation, transepidermal water loss and expression of p^Y1068EGFR, EGFR, KRT10 and KRT16.

[3] = system: Non-diseased 3D human skin equivalent (HSE); assay: Effect of erlotinib on non-diseased 3D human skin equivalent; format: cell-based; details: 100 nM erlotinib every 72 hours until harvest at day 10
Experimental: Human skin equivalents were prepared by methods known in the art. Examples of such methods are disclosed in Mieremet et al. Int. J. Mol. Sci. (2021) 22(11):5790. Non-diseased cells were plated for 3D human skin equivalent (HSE) and treated with 100 nM erlotinib from the time of lifting to the air-liquid interface every 72 hours until harvest at day 10. The samples were subjected to protein, mRNA, immunofluorescence and morphological analysis.

[4] = system: Non-diseased 3D human skin equivalent (HSE); assay: Gene expression analysis, non-diseased 3D HSE; format: cell-based
Experimental: as §1
Gene expression results for non-diseased tissue following treatment with erlotinib: […]

non-diseased 3D HSE = assay: TEER epidermal barrier function, non-diseased 3D HSE; format: cell-based, human; details: 10 nM and 100 nM erlotinib
EI derived keratinocyte = assay: Effect of erlotinib on 2D cultured keratinocytes derived from epidermolytic ichthyosis (colony density); format: cell-based, human; details: 100 nM erlotinib; microscope and fold change
Experimental: Tissue from non-diseased donors and EI patients were cultured and treated with 100 nM erlotinib.

[5] = system: Normal keratinocyte cells; assay: Effect of erlotinib on 2D non-diseased keratinocytes (proliferation, Loricrin expression); format: cell-based
Experimental: Normal keratinocyte cells were cultured and treated with vehicle or erlotinib at 100, 500 and 1000 nM. The proliferation rate of the cells was determined.

EI 3D HSE = assay: TEER epidermal barrier function, EI 3D HSE; format: cell-based, human; details: 10 nM and 100 nM erlotinib
3D EI HSE = assay: Effect of erlotinib on EI 3D HSE (morphological analysis); format: cell-based, human; details: 100 nM erlotinib every 72 hours until harvest at day 12; EI constructs
Experimental: Non-diseased cells and cells from an EI patient were plated for 3D human skim equivalent (HSE)and treated with 100 nM erlotinib from the time of lifting to the air-liquid interface every 72 hours until harvest at day 12. The samples were subjected to morphological analysis. […] (FIGS. 4A-B).

[6] = Erlo 10 nM, CMH98.11 EI patient 3D HSE
[7] = Erlo 10 nM, CMH101.11 EI patient 3D HSE
[8] = Erlo 10 nM, CMH102.11 EI patient 3D HSE
[9] = Erlo 100 nM, CMH98.11 EI patient 3D HSE
[10] = Erlo 100 nM, CMH101.11 EI patient 3D HSE
[11] = Erlo 100 nM, CMH102.11 EI patient 3D HSE
[12] = Erlo 10 nM, NHEK83.19 non-diseased 3D HSE, Control 1.00
[13] = Erlo 10 nM, NUTC394.14 non-diseased 3D HSE, Control 1.00
[14] = Erlo 10 nM, NUTC439.14 non-diseased 3D HSE, Control 1.0
[15] = Erlo 100 nM, NHEK83.19 non-diseased 3D HSE, Control 1.00
[16] = Erlo 100 nM, NUTC394.14 non-diseased 3D HSE, Control 1.00
[17] = Erlo 100 nM, NUTC439.14 non-diseased 3D HSE, Control 1.0
[18] = harvest day 10, listed as Erlotinib

C#Cc1cccc(Nc2ncnc3cc(OCCOC)c(OCCOC)cc23)c1 [erlotinib]
keratin 10 (KRT10) expression ([1]; EI derived human keratinocytes in 3D culture, erlotinib 10 nM or 100 nM): marked increase
CDN4 gene expression [1, 6]: 0.7
CLDN1 gene expression [1, 6]: 0.9
DSC1 gene expression [1, 6]: 0.8
DSG1 gene expression [1, 6]: 1.8
FLG gene expression [1, 6]: 1.2
IVL gene expression [1, 6]: 1.3
KRT10 gene expression [1, 6]: 0.9
KRT16 gene expression [1, 6]: 1.3
LOR gene expression [1, 6]: 1.2
OCLN gene expression [1, 6]: 0.7
TJP1 gene expression [1, 6]: 0.7
CDN4 gene expression [1, 7]: 0.96
CLDN1 gene expression [1, 7]: 0.71
DSC1 gene expression [1, 7]: 0.65
DSG1 gene expression [1, 7]: 1.11
FLG gene expression [1, 7]: 1.08
IVL gene expression [1, 7]: 1.04
KRT10 gene expression [1, 7]: 1.00
KRT16 gene expression [1, 7]: 1.63
LOR gene expression [1, 7]: 1.10
OCLN gene expression [1, 7]: 0.81
TJP1 gene expression [1, 7]: 0.55
CDN4 gene expression [1, 8]: 1.86
CLDN1 gene expression [1, 8]: 0.79
DSC1 gene expression [1, 8]: 0.79
DSG1 gene expression [1, 8]: 4.72
FLG gene expression [1, 8]: 1.22
IVL gene expression [1, 8]: 1.58
KRT10 gene expression [1, 8]: 2.27
KRT16 gene expression [1, 8]: 1.31
LOR gene expression [1, 8]: 0.90
OCLN gene expression [1, 8]: 1.15
TJP1 gene expression [1, 8]: 1.13
CDN4 gene expression [1, 9]: 1.8
CLDN1 gene expression [1, 9]: 1.6
DSC1 gene expression [1, 9]: 1.7
DSG1 gene expression [1, 9]: 1.9
FLG gene expression [1, 9]: 1.1
IVL gene expression [1, 9]: 2.3
KRT10 gene expression [1, 9]: 1.6
KRT16 gene expression [1, 9]: 0.8
LOR gene expression [1, 9]: 0.6
OCLN gene expression [1, 9]: 1.2
TJP1 gene expression [1, 9]: 1.2
CDN4 gene expression [1, 10]: 0.72
CLDN1 gene expression [1, 10]: 0.37
DSC1 gene expression [1, 10]: 6.09
DSG1 gene expression [1, 10]: 2.57
FLG gene expression [1, 10]: 0.72
IVL gene expression [1, 10]: 0.83
KRT10 gene expression [1, 10]: 5.78
KRT16 gene expression [1, 10]: 0.85
LOR gene expression [1, 10]: 0.95
OCLN gene expression [1, 10]: 0.57
TJP1 gene expression [1, 10]: 0.57
CDN4 gene expression [1, 11]: 3.17
CLDN1 gene expression [1, 11]: 2.20
DSC1 gene expression [1, 11]: 2.20
DSG1 gene expression [1, 11]: 6.61
FLG gene expression [1, 11]: 2.06
IVL gene expression [1, 11]: 1.76
KRT10 gene expression [1, 11]: 6.44
KRT16 gene expression [1, 11]: 1.14
LOR gene expression [1, 11]: 0.79
OCLN gene expression [1, 11]: 1.92
TJP1 gene expression [1, 11]: 1.44
skin inflammation ([2]; TPA-treated Skh-1 mice): dose dependent reduction of skin inflammation
transepithelial water loss ([2]; TPA-treated Skh-1 mice): significantly decreasing transepithelial water loss
expression of p^Y1068EGFR, EGFR, KRT10 and KRT16 ([2]; Western blot): dose dependent change
desmosomal organization [3]: desmosomal organization is enhanced
terminal differentiation [3]: enhances terminal differentiation
CDN4 gene expression [4, 12]: 2.92
CLDN1 gene expression [4, 12]: 1.30
DSC1 gene expression [4, 12]: 0.60
DSG1 gene expression [4, 12]: 0.73
FLG gene expression [4, 12]: 0.51
IVL gene expression [4, 12]: 2.15
KRT10 gene expression [4, 12]: 0.28
KRT16 gene expression [4, 12]: 1.70
LOR gene expression [4, 12]: 0.03
OCLN gene expression [4, 12]: 1.76
TJP1 gene expression [4, 12]: 1.65
CDN4 gene expression [4, 13]: 2.87
CLDN1 gene expression [4, 13]: 1.28
DSC1 gene expression [4, 13]: 0.59
DSG1 gene expression [4, 13]: 0.72
FLG gene expression [4, 13]: 0.50
IVL gene expression [4, 13]: 2.11
KRT10 gene expression [4, 13]: 0.27
KRT16 gene expression [4, 13]: 1.67
LOR gene expression [4, 13]: 0.03
OCLN gene expression [4, 13]: 1.73
TJP1 gene expression [4, 13]: 1.62
CDN4 gene expression [4, 14]: 0.7
CLDN1 gene expression [4, 14]: 1.9
DSC1 gene expression [4, 14]: 1.9
DSG1 gene expression [4, 14]: 2.1
FLG gene expression [4, 14]: 1.0
IVL gene expression [4, 14]: 0.9
KRT10 gene expression [4, 14]: 2.1
KRT16 gene expression [4, 14]: 0.9
LOR gene expression [4, 14]: 1.4
OCLN gene expression [4, 14]: 0.7
TJP1 gene expression [4, 14]: 0.7
CDN4 gene expression [4, 15]: 1.65
CLDN1 gene expression [4, 15]: 1.24
DSC1 gene expression [4, 15]: 2.69
DSG1 gene expression [4, 15]: 2.77
FLG gene expression [4, 15]: 2.37
IVL gene expression [4, 15]: 1.21
KRT10 gene expression [4, 15]: 11.50
KRT16 gene expression [4, 15]: 1.00
LOR gene expression [4, 15]: 8.19
OCLN gene expression [4, 15]: 1.36
TJP1 gene expression [4, 15]: 1.58
CDN4 gene expression [4, 16]: 1.54
CLDN1 gene expression [4, 16]: 1.16
DSC1 gene expression [4, 16]: 2.52
DSG1 gene expression [4, 16]: 2.59
FLG gene expression [4, 16]: 2.21
IVL gene expression [4, 16]: 1.14
KRT10 gene expression [4, 16]: 10.75
KRT16 gene expression [4, 16]: 0.89
LOR gene expression [4, 16]: 7.66
OCLN gene expression [4, 16]: 1.27
TJP1 gene expression [4, 16]: 1.48
CDN4 gene expression [4, 17]: 1.4
CLDN1 gene expression [4, 17]: 29.4
DSC1 gene expression [4, 17]: 29.4
DSG1 gene expression [4, 17]: 9.3
FLG gene expression [4, 17]: 25.9
IVL gene expression [4, 17]: 1.5
KRT10 gene expression [4, 17]: 17.2
KRT16 gene expression [4, 17]: 1.6
OCLN gene expression [4, 17]: 1.6
TJP1 gene expression [4, 17]: 1.3
keratin 10 (KRT10) expression ([4]; normal human keratinocytes in 3D culture, erlotinib 10 nM or 100 nM): marked increase
epidermal barrier function (TEER) (non-diseased 3D HSE; harvest day 10): does not impair epidermal barrier function
epidermal barrier function (TEER) (non-diseased 3D HSE; [18]): did not produced a significant change in TEER values
EI derived keratinocyte colony density (EI derived keratinocyte): marked reduction in colony density; also recorded: markedly reduced
keratinocyte differentiation ([5]; following exposure to erlotinib): keratinocyte differentiation is increased
Loricrin expression ([5]; high dose erlotinib): increased Loricrin expression
keratinocyte proliferation ([5]; medium and high doses of erlotinib (tested 100, 500 and 1000 nM) vs vehicle): decreased keratinocyte proliferation
epidermal barrier function (TEER) (EI 3D HSE; harvest day 10): does not impair epidermal barrier function
epidermal barrier function (TEER) (EI 3D HSE; [18]): did not produced a significant change in TEER values
morphologic change in the upper epidermis (3D EI HSE): marked morphologic change

From patent US20230113775A1, “ANHYDROUS COMPOSITIONS OF EGFR INHIBITORS AND METHODS OF USE” (priority 2021, published 2023)
